Test results taken from patent publication US20220193063A1, “METABOLITES OF GLP1R AGONISTS” (Pfizer Inc., priority 2020, published 2022).

Assays:
[1] = system: mixed-gender cryopreserved human hepatocytes; assay: In vitro metabolism of Compound 1 in human cryopreserved hepatocytes; format: in vitro ADME; conditions: HPLC/UV/MS; for metabolite of Compound 1 observed in human hepatocyte incubations: 10 μM Compound 1, 7.5×10^5 cells/mL, 1 and 4 hrs composite sample; for Relative abundance of metabolite of Compound 1, Human: human cryopreserved hepatocytes; as to Relative abundance of metabolite of Compound 1, Human: key: ND Not detected; trace: Trace: observed by HPLC/MS measurements only; + Minor as assessed by HPLC/UV measurements; ++ moderate as assessed by HPLC/UV measurements; +++ major as assessed by HPLC/UV measurements; * m/z 593 and m/z 505 co-eluted in rabbit hepatocytes; ** m/z 591c and m/z 593 were merged in human hepatocytes and Hepatopack; *** m/z 607 and m/z 751b were merged in rabbit hepatocytes
Method: (§1) Male CD-1 mouse hepatocytes (lot YHL), male Wistar-Han rat hepatocytes (Celsis; product number: M000065; lot: SLA), female New Zealand rabbit hepatocytes (lot 1510147), male cryopreserved cynomolgus monkey hepatocytes (Celsis; product number: M00305; lot: DNB) and mixed-gender cryopreserved human hepatocytes (Bioreclamation; product number: S01988; lot: DCM) were obtained for the hepatocyte in-vitro assessments.
(§2) At time 0 hrs 550 μL aliquots were removed from incubations and quenched with 5 volumes of ACN containing 0.1% formic acid. At 1 and 4 hrs, 275 μL aliquots were removed and quenched as above; these were combined in the same tube to prepare a composite sample. For all hepatocyte experiments, samples were processed by centrifugation at 1900×g for 5 minutes, and then the supernatant was transferred to clean glass tubes and evaporated to dryness under a stream of N2 using a Turbovap at 37° C. Sample residues were reconstituted in mobile phase prior to analysis by HPLC/UV/MS^n.
(§3) Samples were analyzed by HPLC/UV/MS^n using a Thermo Orbitrap Elite mass spectrometer in conjunction with a Thermo Open Accela UHPLC system. A 3.0×150 mm, 2.5 μm Acquity CSH C18 HPLC column (Waters) was heated to 45° C. for separation of analytes. The mobile phase was a gradient of A): water containing 0.1% formic acid, and B): acetonitrile. The flow rate was 450 μL/min, and the following gradient program was utilized: […]
(§4) UV absorbance was monitored with a photo-diode array detector from 220-450 nm. The mass spectrometer was operated in positive-ion mode with a HESI ion source at a potential of 3.0 kV, and capillary and source heater temperatures of 380 and 300° C., respectively. Sheath, auxiliary, and sweep gas flows were set to 45, 10, and 2 units, respectively. Full scan mass spectra were acquired over the range 120-1200 m/z at a resolving power of 30,000 (specified at m/z 400). Data-dependent MS^n spectra were acquired in an automated fashion at 15,000 resolving power using CID and HCD fragmentation with normalized collision energy settings of 28 and 65 V, respectively.
(§5) Metabolites were characterized by comparisons of mass spectral fragmentation patterns with that of a Compound 1 standard. All HPLC/UV/MS^n data were processed using Xcalibur v. 2.2, and integrated UV peak areas were subjected to weighted UV binning procedures utilizing an Excel template.

[2] = system: female New Zealand rabbit hepatocytes; assay: In vitro metabolism of Compound 1 in rabbit cryopreserved hepatocytes; format: in vitro ADME; conditions: HPLC/UV/MS; for metabolite of Compound 1 observed in rabbit hepatocyte incubations: 10 μM Compound 1, 7.5×10^5 cells/mL, 1 and 4 hrs composite sample; for Relative abundance of metabolite of Compound 1, Rabbit: rabbit cryopreserved hepatocytes; as to Relative abundance of metabolite of Compound 1, Rabbit: key: ND Not detected; trace: Trace: observed by HPLC/MS measurements only; + Minor as assessed by HPLC/UV measurements; ++ moderate as assessed by HPLC/UV measurements; +++ major as assessed by HPLC/UV measurements; * m/z 593 and m/z 505 co-eluted in rabbit hepatocytes; ** m/z 591c and m/z 593 were merged in human hepatocytes and Hepatopack; *** m/z 607 and m/z 751b were merged in rabbit hepatocytes
Method: as §1, §2, §3, §4, §5

[3] = system: male Wistar-Han rat hepatocytes; assay: In vitro metabolism of Compound 1 in rat cryopreserved hepatocytes; format: in vitro ADME; conditions: HPLC/UV/MS; for metabolite of Compound 1 observed in rat hepatocyte incubations: 10 μM Compound 1, 7.5×10^5 cells/mL, 1 and 4 hrs composite sample; for Relative abundance of metabolite of Compound 1, Rat: rat cryopreserved hepatocytes; as to Relative abundance of metabolite of Compound 1, Rat: key: ND Not detected; trace: Trace: observed by HPLC/MS measurements only; + Minor as assessed by HPLC/UV measurements; ++ moderate as assessed by HPLC/UV measurements; +++ major as assessed by HPLC/UV measurements; * m/z 593 and m/z 505 co-eluted in rabbit hepatocytes; ** m/z 591c and m/z 593 were merged in human hepatocytes and Hepatopack; *** m/z 607 and m/z 751b were merged in rabbit hepatocytes
Method: as §1, §2, §3, §4, §5

[4] = system: male cryopreserved cynomolgus monkey hepatocytes; assay: In vitro metabolism of Compound 1 in monkey cryopreserved hepatocytes; format: in vitro ADME; conditions: HPLC/UV/MS; for metabolite of Compound 1 observed in monkey hepatocyte incubations: 10 μM Compound 1, 7.5×10^5 cells/mL, 1 and 4 hrs composite sample; for Relative abundance of metabolite of Compound 1, Monkey: monkey cryopreserved hepatocytes
Method: as §1, §2, §3, §4, §5

[5] = system: Male CD-1 mouse hepatocytes; assay: In vitro metabolism of Compound 1 in mouse cryopreserved hepatocytes; format: in vitro ADME; conditions: HPLC/UV/MS; for metabolite of Compound 1 observed in mouse hepatocyte incubations: 10 μM Compound 1, 7.5×10^5 cells/mL, 1 and 4 hrs composite sample; for Relative abundance of metabolite of Compound 1, Mouse: mouse cryopreserved hepatocytes
Method: as §1, §2, §3, §4, §5

[6] = Metabolites of Compound 1 in rat bile following a 1.0 mg/kg IV bolus dose (bile duct cannulated rat); format: in vivo; conditions: 1.0 mg/kg IV bolus dose of Compound 1, pooled bile 0-24 hrs, bile duct cannulated male rats
Method: (§6) Plasma and bile samples were obtained from a bile duct cannulated rat experiment (Study PK-0111) in which a 1.0 mg/kg IV bolus dose was administered to fed male rats (N=3). No control plasma was available from this experiment.
Bile samples (0-3, 3-7, and 7-24 hrs) from individual animals were pooled in proportion to the amount collect in each interval. Then 0.5 mL of each individual pool was combined to prepare a composite sample for analysis.
(§7) Pooled plasma and bile samples were extracted with ACN containing 0.1% formic acid, and after centrifugation at 1900×g, the supernatant was transferred to clean tubes and evaporated under N2 in a Turbovap set at 37° C. Residues were reconstituted in mobile phase (5:95 v:v ACN:0.1% aqueous formic acid) prior to analysis by HPLC/UV/MS^n.
as §3, §4, §5

[7] = Circulating metabolites of Compound 1 in rat plasma following a 1.0 mg/kg IV bolus dose; format: in vivo; conditions: 1.0 mg/kg IV bolus dose of Compound 1, pooled plasma 0.033-24 hrs, male rats
Method: as §6
Clin Pharmacol Ther 1981; 29(3):408-13]. The entire volume of each replicate Hamilton pool was combined to create a single pooled sample (576 μL) for analysis.
as §7, §3, §4, §5

[8] = system: human co-cultured hepatocytes (Hepatopack); assay: In vitro metabolism of Compound 1 in human micropatterned co-cultured hepatocytes (Hepatopack); format: in vitro ADME; conditions: human co-cultured hepatocytes (Hepatopack); HPLC/UV/MS; also: key: ND Not detected; trace: Trace: observed by HPLC/MS measurements only; + Minor as assessed by HPLC/UV measurements; ++ moderate as assessed by HPLC/UV measurements; +++ major as assessed by HPLC/UV measurements; * m/z 593 and m/z 505 co-eluted in rabbit hepatocytes; ** m/z 591c and m/z 593 were merged in human hepatocytes and Hepatopack; *** m/z 607 and m/z 751b were merged in rabbit hepatocytes
Text: Micro-patterned co-cultured (MPCC) hepatocyte 24-well plates containing human donors (16 wells each) were provided by Ascendance Biotechnology (formerly Hepregen Corp. (Medford, Mass.). [see Wang W W W, Khetani S R, Krzyzewski S, et al. Assessment of a Micropatterned Hepatocyte Coculture System to Generate Major Human Excretory and Circulating Drug Metabolites. Drug Metab Dispos 2010; 38(10):1900-51 The MPCCs were created at Ascendance Biotechnology and maintained in serum containing medium for 5-6 days to allow for stabilization of the co-cultures prior to shipment. A mixed-gender cryopreserved pool of 10 human donors (X008001-P; lot YFA) was used to seed the plates and was purchased from BioreclamationlVT (Westbury, N.Y.). MPCC hepatocytes are plated with fibroblasts in a 1:3 ratio with ˜25,000 hepatocytes/well in a 24-well plate. 24-Well MPCC plates were shipped to Pfizer, fresh medium (400 μL/well) was applied and cultures were kept at 37° C. with […] and 95% relative humidity for two days. Micropatterned co-cultures containing pooled hepatocytes were allowed 7 days to fully stabilize with respect to liver-specific functions. […] At respective time points (0, 2, and 7 days), the culture medium was removed and mixed with 4 volumes of ACN, then stored frozen at −40° C. until samples could be analyzed. Samples were subsequently processed by the addition of 2.5 mL of 1:1 ACN:MeOH containing 0.1% formic acid. After vortexing, the samples were centrifuged at 1900×g for 5 min, then the supernatant was transferred to 15 mL conical tubes and evaporated under N2 using a Turbovap set at 37° C. The residues were reconstituted in mobile phase (5:95 v:v ACN:0.1% aqueous formic acid) prior to analysis by HPLC/UV/MS^n.
as §3
UV absorbance was monitored with a photo-diode array detector from 220-450 nm. The mass spectrometer was operated in positive-ion mode with a HESI ion source at a potential of 3.0 kV, and capillary and source heater temperatures of 380 and 300° C., respectively. Sheath, auxiliary, and sweep gas flows were set to 45, 10, and 2 units, respectively. Full scan mass spectra were acquired over the range 120-1200 m/z at a resolving power of 30,000 (specified at m/z 400). […]

Row | SMILES | metabolite of Compound 1 observed in human hepatocyte incubations [1] | metabolite of Compound 1 observed in rabbit hepatocyte incubations [2] | metabolite of Compound 1 observed in rat hepatocyte incubations [3] | metabolite of Compound 1 observed in monkey hepatocyte incubations [4] | metabolite of Compound 1 observed in mouse hepatocyte incubations [5] | detected in rat bile [6] | detected in rat plasma [7] | Relative abundance of metabolite of Compound 1, Human [1] | Relative abundance of metabolite of Compound 1, Rabbit [2] | detected in rat bile ([6]; listed as m/z 331) | Relative abundance of metabolite of Compound 1, Hepatopack [8] | Relative abundance of metabolite of Compound 1, Rat [3] | detected in rat plasma ([7]; listed as m/z 331) | Relative abundance of metabolite of Compound 1, Monkey [4] | Relative abundance of metabolite of Compound 1, Mouse [5]
1 | C[C@]1(c2ccc(Cl)cn2)Oc2cccc(C3CCN(Cc4nc5ccc(C(=O)O)cc5n4CC(O)CCO)CC3)c2O1 (stereo in doubt) [Metabolite 593] | observed | observed | observed | observed | observed | – | – | – | – | – | – | – | – | – | –
2 | C[C@]1(c2ccc(Cl)cn2)Oc2cccc(C3CCN(Cc4nc5ccc(C(=O)O)cc5n4C[C@@H]4CCO4)CC3)c2O1 [Compound 1, 2-((4-((S)-2-(5-chloropyridin-2-yl)-2-methylbenzo[d][1,3]dioxol-4-yl)piperidin-1-yl)methyl)-1-(((S)-oxetan-2-yl)methyl)-1H-benzo[d]imidazole-6-carboxylic acid] | – | – | – | – | – | detected | detected | – | – | – | – | – | – | – | –
3 | C[C@]1(c2ccc(Cl)cn2)Oc2cccc(C3CCNCC3)c2O1 [Metabolite 331] | observed | observed | observed | observed | observed | observed | observed | + | trace | detected | trace | trace | detected | + | +
4 | O=C(O)c1ccc2nc(CN3CCC(c4cccc(O)c4O)CC3)n(C[C@@H]3CCO3)c2c1 [Metabolite 438, (S)-2-((4-(2,3-dihydroxyphenyl)piperidin-1-yl)methyl)-1-(oxetan-2-ylmethyl)-1H-benzo[d]imidazole-6-carboxylic acid] | observed as a trace metabolite | – | observed as a trace metabolite | observed as a trace metabolite | – | – | – | – | – | – | – | – | – | – | –
5 | O=C(O)c1ccc2nc(CN3CCC(c4cccc(O)c4O)CC3)n(C[C@@H]3CCO3)c2c1 [Metabolite 438] | – | – | – | – | – | – | – | trace | – | – | – | trace | – | trace | –
6 | C[C@]1(c2ccc(Cl)cn2)Oc2cccc(C3CCN(Cc4nc5ccc(C(=O)O)cc5[nH]4)CC3)c2O1 [Metabolite 505, (S)-2-((4-(2-(5-chloropyridin-2-yl)-2-methylbenzo[d][1,3]dioxol-4-yl)piperidin-1-yl)methyl)-1H-benzo[d]imidazole-6-carboxylic acid] | – | observed | observed | – | observed | – | – | – | – | – | – | – | – | – | –
7 | C[C@]1(c2ccc(Cl)cn2)Oc2cccc(C3CCN(Cc4nc5ccc(C(=O)O)cc5[nH]4)CC3)c2O1 [Metabolite 505] | – | – | – | – | – | – | – | – | – | – | – | trace | – | – | trace
8 | C[C@]1(c2ccc(Cl)cn2)Oc2cccc(-c3cc[n+](Cc4nc5ccc(C(=O)O)cc5n4C[C@@H]4CCO4)cc3)c2O1 [Metabolite 569] | observed | observed | observed | observed | observed | – | – | + | + | – | + | trace | – | trace | +
9 | C[C@]1(c2ccc(Cl)cn2)Oc2cccc(C3CC[N+]([O-])(Cc4nc5ccc(C(=O)O)cc5n4C[C@@H]4CCO4)CC3)c2O1 (stereo partly shown) [Metabolite 591d] | observed | observed | observed | observed | observed | – | – | – | – | – | – | – | – | – | –
10 | CC1(c2ccc(Cl)cn2)Oc2cccc(C3CCN(Cc4nc5ccc(C(=O)OC6OC(C(=O)O)C(O)C(O)C6O)cc5n4CC4CCO4)CC3)c2O1 (stereo not shown) [Metabolite 751b] | – | – | – | – | – | – | – | +++ | ++ | – | ++ | + | – | +++ | ++
